Measurements published in paper PMC6044914 (ACS Omega, 2017).
Converted amounts (≈) assume the structure as drawn. Like-named read-outs stand apart in the source and are kept apart here.

Columns and labels:
[1] = test system: M. tuberculosis H37Rv (London Pride); assay: microbe, parasite or virus in culture; type: cell-based, Mycobacterium tuberculosis; details: for activity against M. tuberculosis (in words): SAR discussion
[2] = test system: Vero cells; details: for cytotoxicity (in words): Vero cells
[3] = Mycobacterium tuberculosis, H37RV, 120 h
[4] = Mycobacterium tuberculosis, H37RV

| Compound | MIC [1, 3] | TC50 ([2]; African green monkey) | MIC [1, 4] | activity against M. tuberculosis (in words) [1] | also measured |
| --- | --- | --- | --- | --- | --- |
| COc1ccnc(C(=O)Nc2ncc([N+](=O)[O-])s2)c1 [compound 20, 4-Methoxy-N-(5-nitrothiazol-2-yl)picolinamide] | 5.6 ± 4.2 µM (≈ 1.57 µg/mL) | 11 µM | – | – | – |
| O=C(Nc1ncc([N+](=O)[O-])s1)c1nc2ccccc2s1 [compound 44, N-(5-Nitrothiazol-2-yl)benzo[d]thiazole-2-carboxamide] | – | – | > 20 µM | – | – |
| Cc1nc(NC(=O)c2ccccc2O)sc1[N+](=O)[O-] [compound 46, 2-Hydroxy-N-(4-methyl-5-nitrothiazol-2-yl)benzamide] | – | 5.2 µM | > 20 µM | inactive | – |
| Cc1cnc(NC(=O)c2ccccn2)s1 [compound 48, N-(5-Methylthiazol-2-yl)picolinamide] | – | 12 µM | > 20 µM | inactive | – |
| O=C(Nc1ncc([N+](=O)[O-])s1)c1cc(F)ccc1O [compound 11, 5-Fluoro-2-hydroxy-N-(5-nitrothiazol-2-yl)benzamide] | > 20 µM | – | – | no activity | – |
| COc1cccnc1C(=O)Nc1ncc([N+](=O)[O-])s1 [compound 24, 3-Methoxy-N-(5-nitrothiazol-2-yl)picolinamide] | > 20 µM | 37 µM | – | inactive | – |
| O=C(Nc1ncc([N+](=O)[O-])s1)c1cccnc1 [compound 34, N-(5-Nitrothiazol-2-yl)nicotinamide] | – | – | > 20 µM | – | – |
| O=C(Nc1ncc([N+](=O)[O-])s1)C1CC1 [compound 27, N-(5-nitrothiazol-2-yl)cyclopropanecarboxamide] | – | – | > 20 µM | loss of activity | – |
| O=[N+]([O-])c1cnc(NS(=O)(=O)c2ccccc2O)s1 [compound 54, 2-Hydroxy-N-(5-nitrothiazol-2-yl)benzenesulfonamide] | – | – | – | inactive | – |
| CCC(C)(C)C(=O)Oc1cccnc1C(=O)Nc1ncc([N+](=O)[O-])s1 [compound 23, 2-((5-Nitrothiazol-2-yl)carbamoyl)pyridin-3-yl 2,2-dimethylbutanoate] | 12 ± 1 µM (≈ 4.37 µg/mL) | 21 µM | – | – | – |
| O=C(Nc1ncc([N+](=O)[O-])s1)c1cnccn1 [compound 32, N-(5-Nitrothiazol-2-yl)pyrazine-2-carboxamide] | – | – | > 20 µM | – | – |
| O=C(Nc1ccccn1)Nc1ncc([N+](=O)[O-])s1 [compound 39, 1-(5-Nitrothiazol-2-yl)-3-(pyridin-2-yl)urea] | – | – | > 20 µM | – | – |
| COc1ccc(C(=O)Nc2ncc([N+](=O)[O-])s2)nc1 [compound 21, 5-Methoxy-N-(5-nitrothiazol-2-yl)picolinamide] | 5.5 ± 2.1 µM (≈ 1.54 µg/mL) | 4.3 µM | – | – | – |
| O=C(Nc1ncc([N+](=O)[O-])s1)c1ccc(N2CCOCC2)cn1 [compound 25, 5-Morpholino-N-(5-nitrothiazol-2-yl)picolinamide] | > 20 µM | 11 µM | – | inactive | – |
| O=[N+]([O-])c1cnc(NCc2ccccc2O)s1 [compound 55, 2-(((5-Nitrothiazol-2-yl)amino)methyl)phenol] | – | – | – | inactive | – |
| Cn1ccnc1C(=O)Nc1ncc([N+](=O)[O-])s1 [compound 40, 1-Methyl-N-(5-nitrothiazol-2-yl)-1H-imidazole-2-carboxamide] | – | – | > 20 µM | – | – |
| O=C(Nc1nc(-c2ccccn2)cs1)c1ccccn1 [compound 52, N-(4-(Pyridin-2-yl)thiazol-2-yl)picolinamide] | – | 15 µM | > 20 µM | inactive | – |
| CNc1ccccc1C(=O)Nc1ncc([N+](=O)[O-])s1 [compound 6, 2-(Methylamino)-N-(5-nitrothiazol-2-yl)benzamide] | > 20 µM | 15 µM | – | no activity | – |
| O=C(O)c1ccccc1C(=O)Nc1ncc([N+](=O)[O-])s1 [compound 16, 2-((5-Nitrothiazol-2-yl)carbamoyl)benzoic Acid] | > 20 µM | >50 µM | – | no activity | – |
| CC(=O)Nc1ccccc1C(=O)Nc1ncc([N+](=O)[O-])s1 [compound 7, 2-Acetamido-N-(5-nitrothiazol-2-yl)benzamide] | > 20 µM | – | – | no activity | – |
| O=C(Nc1ncc([N+](=O)[O-])s1)c1ccncn1 [compound 30, N-(5-Nitrothiazol-2-yl)pyrimidine-4-carboxamide] | – | – | > 20 µM | loss of activity | – |
| CCC(C)(C)C(=O)Oc1cc(N2CCOCC2)ccc1C(=O)Nc1ncc([N+](=O)[O-])s1 [compound 14, 5-Morpholino-2-((5-nitrothiazol-2-yl)carbamoyl)phenyl 2,2-dimethylbutanoate] | > 20 µM | 12 µM | – | no activity | – |

| Compound | MIC [1, 3] | TC50 ([2]; African green monkey) | MIC [1, 4] | activity against M. tuberculosis (in words) [1] | also measured |
| --- | --- | --- | --- | --- | --- |
| CC(C)(C)OC(=O)Nc1ccccc1C(=O)Nc1ncc([N+](=O)[O-])s1 [compound 10, tert-Butyl (2-((5-nitrothiazol-2-yl)carbamoyl)phenyl)carbamate] | 17 ± 4.2 µM (≈ 6.19 µg/mL) | 6.6 µM | – | showed activity | – |
| Cc1nc(NC(=O)c2ccccn2)sc1[N+](=O)[O-] [compound 50, N-(4-Methyl-5-nitrothiazol-2-yl)picolinamide] | – | 4.2 µM | 1.5 ± 0.6 µM (≈ 0.396 µg/mL) | some activity | cytotoxicity (in words) [2]: cytotoxicity |
| CCC(C)(C)C(=O)Nc1ccccc1C(=O)Nc1ncc([N+](=O)[O-])s1 [compound 9, 2-(2,2-Dimethylbutanamido)-N-(5-nitrothiazol-2-yl)benzamide] | 17 ± 4.9 µM (≈ 6.16 µg/mL) | 4.1 µM | – | showed activity | – |
| CC(=O)Nc1ncc([N+](=O)[O-])s1 [compound 26, N-(5-Nitrothiazol-2-yl)acetamide] | – | – | > 20 µM | loss of activity | – |
| O=C(Nc1ncc(C(=O)O)s1)c1ccccn1 [compound 51, 2-(Picolinamido)thiazole-5-carboxylic Acid] | – | >50 µM | > 20 µM | inactive | – |
| Cc1cnc(C(=O)Nc2ncc([N+](=O)[O-])s2)s1 [compound 43, 5-Methyl-N-(5-nitrothiazol-2-yl)thiazole-2-carboxamide] | – | – | > 20 µM | – | – |
| O=C(Nc1ncc([N+](=O)[O-])s1)N1CCCCC1 [compound 31, N-(5-Nitrothiazol-2-yl)piperidine-1-carboxamide] | – | – | > 20 µM | – | – |
| O=C(Nc1ncc(C(F)(F)F)s1)c1ccccn1 [compound 49, N-(5-(Trifluoromethyl)thiazol-2-yl)picolinamide] | – | 0.8 µM | 5.3 ± 0.2 µM (≈ 1.45 µg/mL) | some activity | cytotoxicity (in words) [2]: cytotoxicity |
| O=C(Nc1ncc([N+](=O)[O-])s1)NC1CCCCC1 [compound 38, 1-Cyclohexyl-3-(5-nitrothiazol-2-yl)urea] | – | – | > 20 µM | – | – |
| O=C(Nc1ncc([N+](=O)[O-])s1)c1ncco1 [compound 41, N-(5-Nitrothiazol-2-yl)oxazole-2-carboxamide] | – | – | > 20 µM | – | – |
| O=C(Nc1ncc([N+](=O)[O-])s1)C1CCCCC1O (centres unmarked) [compound 29, 2-Hydroxy-N-(5-nitrothiazol-2-yl)cyclohexane-1-carboxamide] | – | – | > 20 µM | – | – |
| O=C(Nc1ncc([N+](=O)[O-])s1)c1ccncc1 [compound 35, N-(5-Nitrothiazol-2-yl)isonicotinamide] | – | – | > 20 µM | – | – |
| O=C(Nc1ncc([N+](=O)[O-])s1)c1nccs1 [compound 33, N-(5-Nitrothiazol-2-yl)thiazole-2-carboxamide] | – | – | > 20 µM | – | – |
| 3-Isobutoxy-N-(5-nitrothiazol-2-yl)picolinamide [compound 22] | – | – | – | – | MIC ([1]; Table 1, […], average ± SD of two independent experiments): 16 ± 6.4 µM; TC50 [2]: 8.9 µM |
| O=[N+]([O-])c1cnc(NCc2ccccn2)s1 [compound 56, 5-Nitro-N-(pyridin-2-ylmethyl)thiazol-2-amine] | – | – | – | inactive | – |
| Nc1ccccc1C(=O)Nc1ncc([N+](=O)[O-])s1 [compound 5, 2-Amino-N-(5-nitrothiazol-2-yl)benzamide] | > 20 µM | 31 µM | – | no activity | – |
| CC(=O)Oc1ccccc1C(=O)Nc1nccs1 [compound 45, 2-(Thiazol-2-ylcarbamoyl)phenyl Acetate] | – | >50 µM | > 20 µM | eliminated all activity | – |
| O=C(Nc1ncc([N+](=O)[O-])s1)c1ccon1 [compound 42, N-(5-Nitrothiazol-2-yl)isoxazole-3-carboxamide] | – | – | > 20 µM | – | – |
| CCC(C)(C)C(=O)Nc1cccnc1C(=O)Nc1ncc([N+](=O)[O-])s1 [compound 18, 3-(2,2-Dimethylbutanamido)-N-(5-nitrothiazol-2-yl)picolinamide] | 1.4 ± 0.6 µM (≈ 0.509 µg/mL) | 0.9 µM | – | showed activity | improvement in activity relative to 1 [1]: 10 fold |
| COc1ccccc1C(=O)Nc1ncc([N+](=O)[O-])s1 [compound 17, 2-Methoxy-N-(5-nitrothiazol-2-yl)benzamide] | > 20 µM | – | – | no activity | – |
| O=C(Nc1ncc([N+](=O)[O-])s1)c1cc(O)ccc1O [compound 15, 2,5-Dihydroxy-N-(5-nitrothiazol-2-yl)benzamide] | > 20 µM | 13 µM | – | no activity | – |
| CO[C@H]1/C=C/O[C@@]2(C)Oc3c(C)c(O)c4c(O)c(c(/C=N/N5CCN(C)CC5)c(O)c4c3C2=O)NC(=O)/C(C)=C\C=C\[C@H](C)[C@H](O)[C@@H](C)[C@@H](O)[C@@H](C)[C@H](OC(C)=O)[C@@H]1C [rifampicin, reference compound] | 0.004 µM (≈ 0.00329 µg/mL) | >50 µM | – | – | – |
